From PMC6978637 (Saudi Pharmaceutical Journal : SPJ, 2019)
Values joined by “and” are separate entries in the source; they are usually repeats but may differ in a detail not shown here. Equal entries are not always repeated. Where two headings read alike, the source gives them in different places.

Legend:
FGFR4 = FGFR4 (Homo sapiens, UniProt P22455); test: biochemical; assay type: biochemical
NIH-3T3 cells = test: WST-1 cytotoxicity assay; assay type: cell-based, mouse; conditions: Mus musculus, NIH3T3, 48 h, read-out: NIH-3T3 Cells IC50
FGFR1 [1] = target: FGFR1 (Homo sapiens, UniProt P11362); test: Z'-LYTE kinase enzyme inhibition assay, FGFR1; assay type: biochemical; conditions: FGFR1-IC50
FGFR1 [2] = test: Z'-LYTE kinase enzyme inhibition assay, FGFR1; assay type: biochemical; conditions: for FGFR1-SI: selectivity index IC50/IC50, lowest IC50 of the compound = 1; for FGFR selectivity (in words): among FGFR1-4
FGFR3 [3] = target: FGFR3 (Homo sapiens, UniProt P22607); test: biochemical; assay type: biochemical; conditions: FGFR3-IC50
FGFR3 [4] = test: biochemical; assay type: biochemical
FGFR2 [5] = target: FGFR2 (Homo sapiens, UniProt P21802); test: biochemical; conditions: FGFR2-IC50
FGFR2 [6] = test: biochemical
[7] = selectivity index IC50/IC50, lowest IC50 of the compound = 1

Sequence of FGFR4 (P22455 22-802): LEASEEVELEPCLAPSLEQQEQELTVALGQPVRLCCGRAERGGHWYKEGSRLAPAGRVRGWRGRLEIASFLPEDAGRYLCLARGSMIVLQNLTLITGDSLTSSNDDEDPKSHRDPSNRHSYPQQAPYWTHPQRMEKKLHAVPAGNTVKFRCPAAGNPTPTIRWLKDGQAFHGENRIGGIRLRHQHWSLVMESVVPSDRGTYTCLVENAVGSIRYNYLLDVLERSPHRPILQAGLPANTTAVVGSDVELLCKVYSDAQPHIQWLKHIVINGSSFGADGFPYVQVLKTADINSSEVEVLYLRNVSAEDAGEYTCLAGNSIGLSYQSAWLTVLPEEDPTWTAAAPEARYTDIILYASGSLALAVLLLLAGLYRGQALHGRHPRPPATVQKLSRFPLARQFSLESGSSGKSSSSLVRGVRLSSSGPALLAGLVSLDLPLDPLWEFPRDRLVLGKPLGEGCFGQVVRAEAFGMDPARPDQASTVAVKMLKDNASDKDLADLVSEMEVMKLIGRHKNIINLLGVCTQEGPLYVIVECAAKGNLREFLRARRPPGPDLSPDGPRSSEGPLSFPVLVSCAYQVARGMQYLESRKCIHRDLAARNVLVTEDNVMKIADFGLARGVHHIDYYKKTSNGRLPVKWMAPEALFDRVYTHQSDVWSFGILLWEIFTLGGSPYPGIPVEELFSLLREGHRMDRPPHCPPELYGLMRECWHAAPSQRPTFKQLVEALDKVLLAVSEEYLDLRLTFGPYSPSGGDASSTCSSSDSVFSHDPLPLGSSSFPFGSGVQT
Sequence of FGFR1 (Homo sapiens, UniProt P11362) (P11362 22-822): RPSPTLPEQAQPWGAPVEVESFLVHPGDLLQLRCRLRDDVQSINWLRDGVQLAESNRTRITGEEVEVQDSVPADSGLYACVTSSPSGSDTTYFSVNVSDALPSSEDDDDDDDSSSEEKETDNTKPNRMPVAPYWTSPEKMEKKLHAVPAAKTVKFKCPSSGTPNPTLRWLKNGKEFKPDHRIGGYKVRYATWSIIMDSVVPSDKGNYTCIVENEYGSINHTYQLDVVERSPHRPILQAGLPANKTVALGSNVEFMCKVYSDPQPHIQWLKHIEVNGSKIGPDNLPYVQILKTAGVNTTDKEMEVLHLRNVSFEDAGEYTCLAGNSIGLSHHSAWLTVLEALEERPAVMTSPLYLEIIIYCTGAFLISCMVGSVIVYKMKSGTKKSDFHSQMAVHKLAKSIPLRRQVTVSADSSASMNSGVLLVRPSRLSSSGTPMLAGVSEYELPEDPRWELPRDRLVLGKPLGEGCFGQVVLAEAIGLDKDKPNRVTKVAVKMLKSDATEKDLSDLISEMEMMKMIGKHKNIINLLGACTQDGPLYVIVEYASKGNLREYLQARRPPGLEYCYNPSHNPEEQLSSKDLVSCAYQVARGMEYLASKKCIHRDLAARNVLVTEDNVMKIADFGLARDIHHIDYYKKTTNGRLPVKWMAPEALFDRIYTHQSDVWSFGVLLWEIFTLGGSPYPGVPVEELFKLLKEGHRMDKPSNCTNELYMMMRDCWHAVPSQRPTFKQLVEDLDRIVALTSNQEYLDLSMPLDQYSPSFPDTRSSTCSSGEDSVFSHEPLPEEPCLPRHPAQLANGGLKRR
Sequence of FGFR3 (Homo sapiens, UniProt P22607) (P22607 23-806): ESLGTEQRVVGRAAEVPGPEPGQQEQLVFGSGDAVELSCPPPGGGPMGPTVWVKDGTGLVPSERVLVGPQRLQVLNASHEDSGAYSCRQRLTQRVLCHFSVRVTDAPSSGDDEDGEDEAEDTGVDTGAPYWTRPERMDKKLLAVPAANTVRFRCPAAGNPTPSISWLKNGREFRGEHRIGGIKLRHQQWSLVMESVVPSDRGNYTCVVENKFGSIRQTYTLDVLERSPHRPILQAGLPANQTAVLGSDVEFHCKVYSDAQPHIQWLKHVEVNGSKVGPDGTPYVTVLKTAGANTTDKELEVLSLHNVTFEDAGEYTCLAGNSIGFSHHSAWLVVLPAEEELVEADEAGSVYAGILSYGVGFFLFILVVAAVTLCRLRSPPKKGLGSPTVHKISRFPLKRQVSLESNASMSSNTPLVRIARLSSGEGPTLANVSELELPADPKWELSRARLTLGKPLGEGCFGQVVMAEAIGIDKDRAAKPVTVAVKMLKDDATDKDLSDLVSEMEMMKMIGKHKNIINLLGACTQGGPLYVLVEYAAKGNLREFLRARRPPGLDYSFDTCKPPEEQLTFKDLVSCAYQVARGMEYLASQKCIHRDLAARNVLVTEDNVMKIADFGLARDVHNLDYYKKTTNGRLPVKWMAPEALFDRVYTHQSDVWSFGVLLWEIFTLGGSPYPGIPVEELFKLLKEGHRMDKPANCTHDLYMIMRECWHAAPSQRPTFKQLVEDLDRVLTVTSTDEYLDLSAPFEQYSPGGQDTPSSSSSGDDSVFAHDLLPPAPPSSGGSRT
Sequence of FGFR2 (Homo sapiens, UniProt P21802) (P21802 22-821): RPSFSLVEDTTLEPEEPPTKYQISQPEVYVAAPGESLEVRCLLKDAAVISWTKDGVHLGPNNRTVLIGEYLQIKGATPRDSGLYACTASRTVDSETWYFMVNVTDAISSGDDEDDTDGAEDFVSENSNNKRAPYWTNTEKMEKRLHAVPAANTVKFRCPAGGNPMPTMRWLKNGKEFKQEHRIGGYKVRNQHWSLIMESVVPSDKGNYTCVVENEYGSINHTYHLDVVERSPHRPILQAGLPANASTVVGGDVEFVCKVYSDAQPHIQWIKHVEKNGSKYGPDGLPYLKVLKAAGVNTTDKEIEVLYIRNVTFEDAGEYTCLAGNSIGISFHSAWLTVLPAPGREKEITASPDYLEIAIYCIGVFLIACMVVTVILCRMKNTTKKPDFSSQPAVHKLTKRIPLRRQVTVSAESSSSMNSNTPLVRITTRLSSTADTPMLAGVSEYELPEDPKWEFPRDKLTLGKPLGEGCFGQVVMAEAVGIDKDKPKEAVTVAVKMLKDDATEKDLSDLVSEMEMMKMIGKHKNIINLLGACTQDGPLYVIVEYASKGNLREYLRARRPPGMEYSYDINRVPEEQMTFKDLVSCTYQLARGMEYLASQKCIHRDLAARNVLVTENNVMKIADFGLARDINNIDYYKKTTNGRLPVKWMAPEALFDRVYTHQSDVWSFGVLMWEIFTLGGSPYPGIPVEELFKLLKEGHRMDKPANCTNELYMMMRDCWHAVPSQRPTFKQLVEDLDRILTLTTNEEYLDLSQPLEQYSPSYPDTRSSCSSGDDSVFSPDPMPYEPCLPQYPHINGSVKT

Structure (SMILES)	FGFR4-SI (FGFR4)	IC50 (FGFR4) [µM]	IC50 (NIH-3T3 cells) [nM]	IC50 (FGFR1 [1]) [nM]	FGFR1-SI (FGFR1 [2])	IC50 (FGFR3 [3])	FGFR selectivity (in words) (FGFR3 [4]; among FGFR1-4)	FGFR3-SI (FGFR3 [4]; [7])	FGFR3-SI (FGFR3 [4])	FGFR selectivity (in words) (FGFR1 [2])	IC50 (FGFR2 [5]) [nM]	FGFR selectivity (in words) (FGFR2 [6]; among FGFR1-4)	FGFR2-SI (FGFR2 [6]; [7])
CN1CCN(c2ccc(/C=C3/C(=O)Nc4ccc(-c5ccc(C(=O)N6CCCCC6)cc5)cc43)cc2)CC1 [Compound A16, (E)-3-[4-(4-methylpiperazin-1-yl)benzylidene]-5-[4-(piperidine-1-carbonyl)phenyl]indolin-2-one]	1054.660	15.05 ± 0.0641	626 ± 140	256 ± 28.1	17.919	14.3 nM and 14.2 nM	for FGFR3	1					
O=CN1CCN(c2ccc(/C=C3/C(=O)Nc4ccc(-c5ccc(C(=O)N6CCCC6)cc5)cc43)cc2)CC1 [Compound A30, (E)-4-{4-{ {2-oxo-5-[4-(pyrrolidine-1-carbonyl)phenyl]indolin-3-ylidene}methyl}phenyl}piperazine-1-carbaldehyde]	94.136	6.32 ± 0.322	1590 ± 224	67.2 ± 2.92	1	193 ± 39.3 nM			2.880				
CN1CCN(c2ccc(/C=C3/C(=O)Nc4ccc(-c5ccc(C(=O)N6CCCC6)cc5)cc43)cc2)CC1 [Compound A18, (E)-3-[4-(4-methylpiperazin-1-yl)benzylidene]-5-[4-(pyrrolidine-1-carbonyl)phenyl]indolin-2-one]	295.505	14.5 ± 0.211	2540 ± 146	49.2 ± 2.52	1	156 ± 31.3 nM			3.167	selectivity to FGFR1			
O=CN1CCN(c2ccc(/C=C3/C(=O)Nc4ccc(-c5ccc6cc(O)ccc6c5)cc43)cc2)CC1 [Compound A25, (E)-4-{4-{[5-(6-hydroxynaphthalen-2-yl)-2-oxoindolin-3-ylidene]methyl}phenyl}piperazine-1-carbaldehyde]	5.641	6.13 ± 0.208	24500 ± 306	3976 ± 0.354	3.658	1090 ± 477 nM		1					
CN1CCN(C(=O)c2ccc(-c3ccc4c(c3)/C(=C\c3ccc(N5CCC(O)CC5)cc3)C(=O)N4)cc2)CC1 [Compound A11, (E)-3-[4-(4-hydroxypiperidin-1-yl)benzylidene]-5-[4-(4-methylpiperazine-1-carbonyl)phenyl]indolin-2-one]	191.383	20.2 ± 0.259	87800 ± 4290	155 ± 6.18	1.464	106 ± 2.8 nM		1		selectivity to FGFR1 and FGFR3			
O=C1Nc2ccc(-c3ccc(-c4ccc(O)cc4)cc3)cc2/C1=C\c1ccc(N2CCOCC2)cc1 [Compound A2, (E)-5-(4'-hydroxy-[1,1'-biphenyl]-4-yl)-3-(4-morpholinobenzylidene)indolin-2-one]	2514.228	21.2 ± 0.351	949 ± 24.7	219 ± 4.32	25.948	3460 ± 510 nM			409.791		8.44 ± 0.237	for FGFR2	1
O=C1Nc2ccc(-c3ccc(C(=O)N4CCCCC4)cc3)cc2/C1=C\c1ccc(N2CCOCC2)cc1 [Compound A4, (E)-3-(4-morpholinobenzylidene)-5-[4-(piperidine-1-carbonyl)phenyl]indolin-2-one]	141.176	15.1 ± 0.313	400 ± 100	107 ± 3.84	1	195 ± 5.61 nM			1.819	selectivity to FGFR1 and FGFR3			
O=C1Nc2ccc(-c3ccc(C(=O)N4CCCC4)cc3)cc2/C1=C\c1ccc(N2CCOCC2)cc1 [Compound A6, (E)-3-(4-morpholinobenzylidene)-5-[4-(pyrrolidine-1-carbonyl)phenyl]indolin-2-one]	16.785	0.823 ± 0.108	818 ± 241	49 ± 0.688	1	1090 ± 47.3 nM			22.297	selectivity to FGFR1			
CN1CCN(C(=O)c2ccc(-c3ccc4c(c3)/C(=C\c3ccc(N5CCN(C=O)CC5)cc3)C(=O)N4)cc2)CC1 [Compound A29, (E)-4-{4-{ {5-[4-(4-methylpiperazine-1-carbonyl)phenyl]-2-oxoindolin-3-ylidene}methyl}phenyl}piperazine-1-carbaldehyde]	32.626	6.1 ± 0.347	10100 ± 251	9130 ± 1760	48.818	187 ± 4.12 nM		1					
